Results taken from US5196438A, “Amino acid derivatives” (Hoffmann-La Roche Inc., priority 1989, dated 1993).
Read-outs that look alike come from different tables or passages of the source.

Legend:
[1] = test system: HTLV-III (strain RF) grown in C8166 cells; experiment: Activity against HIV (p24 antigen capture assay in infected C8166 cells); type: cell-based; conditions: Human immunodeficiency virus 1, concentration that produces 50% protection, 72 hours, viral protein 24 antigen capture, read-out: I50 Activity against HIV
Procedure: This assay uses HTLV-III (strain RF) grown in C8166 cells (a human CD4^+ T lymphoblastoid line) using RPM1 1640 medium with bicarbonate buffer, antibiotics and 10% fetal bovine serum.
A suspension of cells is infected with ten times the TCD50 of virus and adsorption allowed to proceed for 90 minutes at 37° C. The cells are washed three times with medium. The test is carried out in 6 ml tissue culture tubes, each tube containing 2×10^5 infected cells in 1.5 ml of medium. Test compounds are dissolved in either aqueous medium or dimethyl sulphoxide, according to solubility, and a 15 μl solution of the substance added. The cultures are incubated at 37° C. for 72 hours in a humidified atmosphere containing 5% carbon dioxide in air. The cultures are then centrifuged and an aliquot of the supernatant solubilized with Nonidet P40 and subjected to an antigen capture assay which uses a primary antiserum with particular reactivity against the viral protein 24 and a horseradish peroxidase detection system. Color generation is measured spectrophotometrically and plotted against the concentration of test substance. The concentration that produces 50% protection is determined. (I50).

[2] = biological target: HIV protease (Human immunodeficiency virus type 1 group M subtype B, UniProt P04585); experiment: In vitro inhibition of HIV protease (spectrophotometric assay of N-terminal proline from peptide substrate cleavage); type: biochemical; conditions: citrate buffer pH 5.5, 37° C.
Procedure: HIV protease was expressed in E. coli and partially purified from soluble extracts of the bacterium by ammonium sulphate fractionation (0-30%). […] Cleavage of the substrate was quantified by measuring the production of H-Pro-Ile isobutylamide by the spectrophotometric assay of N-terminal proline.
1.25 mM of substrate were dissolved in 125 mM of citrate buffer (pH 5.5) containing 0.125 mg/ml of Tween 20. […] The solution was heated in a water bath and then the pigmented residues were re-dissolved in 1 ml of 1% pyrogallol in 33% water in acetone (wt./vol./vol.). The optical density of the solution was measured spectrophotometrically at 599 nm.

With `CC(C)(C)NC(=O)[C@@H]1C[C@@H]2CCCC[C@@H]2CN1C[C@@H](O)[C@H](Cc1ccccc1)NC(=O)[C@H](CC(N)=O)NC(=O)c1ccc2ccccc2n1` [2-Quinolylcarbonyl, N-tert.butyl-decahydro-2-[2(R)-hydroxy-4-phenyl-3(S)-[[N-(2-quinolylcarbonyl)-L-asparaginyl]amino]butyl]-(4aS,8aS)-isoquinoline-3(S)-carboxamide] the IC50 [1] was 2 nM.

For `CC(C)(C)NC(=O)[C@@H]1C[C@@H]2CCCC[C@@H]2CN1C[C@@H](O)[C@H](Cc1ccccc1)NC(=O)[C@H](CC(N)=O)NC(=O)OCc1ccccc1` [Benzyloxycarbonyl, 2-[3(S)-[[N-(benzyloxycarbonyl)-L-asparaginyl]amino]-2(R)-hydroxy-4-phenylbutyl]-N-tert.butyl-decahydro-(4aS,8aS)-isoquinoline-3(S)-carboxamide], the IC50 ([2]; substrate S^1: succinyl-Ser-Leu-Asn-Tyr-Pro-Ile isobutylamide, read-out: I50 Inhibition of HIV protease, S^1) was < 24 nM, the IC50 ([2]; substrate S^2: succinyl-Val-Ser-Gln-Asn-Phe-Pro-Ile isobutylamide, read-out: I50 Inhibition of HIV protease, S^2) was < 2.7 nM and the IC50 [1] was 20 nM.
